Experimental data from patent US20220073475A1, “5-MEMBERED HETEROARYL COMPOUNDS CONTAINING A HYDROXAMATE MOIETY AND THEIR USE” (UNIVERSITE DE LILLE, priority 2019, published 2022).

System: OPM2 cells
Assay: CFZ potency increase, ratio of CC50 of CFZ alone / with compound
Format: cell-based, human
Description: Human multiple myeloma cells OPM2 (ACC 50, DSMZ) are maintained at 0.3-0.7 10^6 cells/mL in RPMI1640 medium supplemented with GlutaMAX™, 10% fetal bovine serum and 1% penicillin-streptomycin.
We developed a cell-based, high content assay allowing the rapid detection and quantification of apoptotic cells. Caspase-3/7 activity was detected in real-time using the NucView™ 488 Caspase-3 substrate (Biotium), where the caspase-3/7 substrate peptide sequence DEVD is attached to a nucleic acid dye. The NucView™ 488 reagent crosses the plasma membrane to enter the cytoplasm, where the dye is unable to bind to DNA and remains non-fluorescent. Once the substrate has been cleaved by activated caspase-3/7 in apoptotic cells, the high-affinity DNA dye is released and migrates to the cell nucleus to stain the nucleus with a bright green fluorescence. All cell nuclei were also labeled with Hoechst 33342 (Ozyme).
For OPM2, briefly, nanoliters of compound and cytotoxic agent in DMSO stock solutions were first transferred and combined in 384-microtiter well plate using an Echo555 liquid handler (Labcyte). The exact volume of each solution to be transferred was calculated to achieve subsequently the target concentration in the 70 μL volume incubate. Final DMSO content was maintained at 0.2%. Then, 70 μL of cells treated with 1 μM NucView™ 488 and 20 ng/mL Hoechst 33342 were distributed to the plates to obtain a final density of 12,000 cells per well. The microplates were incubated at 37° C. and 5% CO2 in an automated LiCONiC STR240 UB cell incubator, and images were acquired at various times at 405 nm and 488 nm with the high-resolution automated confocal microscope INCell 6000 (GE). Four fields per well were read with the 20× objective in a confocal mode. The BioCel workstation was managed by VWorks automation control software
For all cells, Columbus software (Perkin) was used for image quantification and analysis. First, Hoechst 33342 staining was used for an automated detection of nuclei, in which the mean fluorescence intensity for NucView™ 488 was quantified. Inspection of control cells at initial time was used to set a threshold level of NucView™ 488 fluorescence to separate non apoptotic cells from apoptotic cells. Finally, for each well, the result was expressed as percentage of apoptotic cells in the total cell population. CC50 values were calculated from concentration-response curves by a nonlinear regression analysis at four parameters using Excel Fit or GraphPad Prim softwares.
Activity=(% of apoptotic cells with cytotoxic agent in combination with compound of the invention)/(% of apoptotic cells with cytotoxic agent alone). • Ratio of CC50: The CC50 of the cytotoxic agent was calculated in absence and in presence of a compound of the invention.
Activity=(CC50 of agent alone)/(CC50 of agent with compound). • Ratio of AUC. Activity=(Area of the dose-concentration curve of cytotoxic agent combined with one concentration of compound)/(Area of the dose-concentration curve of cytotoxic agent alone). (Lehar J. et al, 2008 (molecular systems biology 4:215)).

[1] = OPM2, compound at 7.5 μM (Table 5)

SMILES | Activity: ratio (CC50 of CFZ alone)/(CC50 of CFZ in combination with compound of the invention) [1] | other results
O=C(C[C@@H](Cc1ccc2cccnc2c1)n1cc(CNC(=O)c2ccc(F)c(F)c2)nn1)NO [Compound 170, (R)-3,4-difluoro-N-((1-(4-(hydroxyamino)-4-oxo-1-(quinolin-7-yl)butan-2-yl)-1H-1,2,3-triazol-4-yl)methyl)benzamide] | 1.5 | –
O=C(C[C@@H](Cc1c[nH]c2ccccc12)n1cc(C(Cc2ccc(OCc3ccccc3)cc2)NC(=O)c2ccc(F)c(F)c2)nn1)NO (stereo partly drawn) [Compound 89, N-[2-(4-benzyloxyphenyl)-1-[1-[(1R)-3-(hydroxyamino)-1-(1H-indol-3-ylmethyl)-3-oxo-propyl]triazol-4-yl]ethyl]-3,4-difluoro-benzamide] | 7.6 | Activity: ratio (CC50 of CFZ alone)/(CC50 of CFZ in combination with compound of the invention) (OPM2, compound at 7.5 μM (Table 6)): 7.6
CN(Cc1cn([C@@H](CC(=O)NO)Cc2ccc3c(c2)CCCC3)nn1)C(=O)c1ccc(F)cc1 [Compound 166, (R)-4-fluoro-N-((1-(4-(hydroxyamino)-4-oxo-1-(5,6,7,8-tetrahydronaphthalen-2-yl)butan-2-yl)-1H-1,2,3-triazol-4-yl)methyl)-N-methylbenzamide] | – | Activity: ratio (CC50 of CFZ alone)/(CC50 of CFZ in combination with compound of the invention) (OPM2, compound at a concentration of 3.7 μM (Table 5, footnote b)): 2.1
CN(Cc1cn([C@@H](CC(=O)NO)Cc2ccc3ccccc3c2)nn1)C(=O)c1ccc(F)c(F)c1 [Compound 87] | 1.7 | –
O=C(C[C@@H](Cc1c[nH]c2ccccc12)n1cc([C@H](CO)NC(=O)c2ccc(F)c(F)c2)nn1)NO [Compound 92, 3,4-difluoro-N-[(1R)-2-hydroxy-1-[1-[(1R)-3-(hydroxyamino)-1-(1H-indol-3-ylmethyl)-3-oxo-propyl]triazol-4-yl]ethyl]benzamide] | 1.7 | –
O=C(C[C@@H](Cc1ccc2ccccc2c1)n1cc(C2COCCN2C(=O)c2ccc(F)c(F)c2)nn1)NO (stereo partly drawn) [Compound 95, (3R)-3-[4-[4-(3,4-difluorobenzoyl)morpholin-3-yl]triazol-1-yl]-4-(2-naphthyl)butanehydroxamic acid] | 2.1 | –
O=C(C[C@@H](Cc1csc2ccccc12)n1cc(CNC(=O)c2ccc(F)c(F)c2)nn1)NO [Compound 179, (R)—N-((1-(1-(benzo[b]thiophen-3-yl)-4-(hydroxyamino)-4-oxobutan-2-yl)-1H-1,2,3-triazol-4-yl)methyl)-3,4-difluorobenzamide] | 1.6 | –
O=C(C[C@@H](Cc1ccc2ccccc2c1)n1cc([C@H](CO)NC(=O)c2ccc(F)c(F)c2)nn1)NO [Compound 96, 3,4-difluoro-N-[(1R)-2-hydroxy-1-[1-[(1R)-3-(hydroxyamino)-1-(2-naphthylmethyl)-3-oxo-propyl]triazol-4-yl]ethyl]benzamide] | 1.4 | –
CC(NC(=O)c1ccc(F)c(F)c1)c1cn([C@@H](CC(=O)NO)Cc2ccc3ccccc3c2)nn1 (stereo in doubt) [Compound 78, 3,4-difluoro-N-[1-[1-[3-(hydroxyamino)-1-(2-naphthylmethyl)-3-oxo-propyl]triazol-4-yl]ethyl]benzamide] | 2.0 | –
O=C(C[C@@H](Cc1csc2ccccc12)n1cc(CNC(=O)c2ccc(F)cc2)nn1)NO [Compound 180, (R)—N-((1-(1-(benzo[b]thiophen-3-yl)-4-(hydroxyamino)-4-oxobutan-2-yl)-1H-1,2,3-triazol-4-yl)methyl)-4-fluorobenzamide] | 1.8 | –
CC(NC(=O)c1ccc(F)c(F)c1)c1cn([C@@H](CC(=O)NO)Cc2c[nH]c3ccccc23)nn1 (stereo partly drawn) [Compound 91, 3,4-difluoro-N-[1-[1-[(1R)-3-(hydroxyamino)-1-(1H-indol-3-ylmethyl)-3-oxo-propyl]triazol-4-yl]ethyl]benzamide] | 1.4 | –
O=C(C[C@@H](Cc1ccc2ccccc2c1)n1nncc1CNC(=O)CCc1ccccc1)NO [Compound 25, (R)—N-hydroxy-4-naphthalen-2-yl-3-{5-[(3-phenyl-propionylamino)-methyl]-[1,2,3]-triazol-1-yl}-butyramide] | 1.4 | –
O=C(C[C@@H](Cc1ccc2c(c1)OCCO2)n1cc(CNC(=O)c2ccc(F)c(F)c2)nn1)NO [Compound 183, (R)—N-((1-(1-(2,3-dihydrobenzo[b][1,4]dioxin-6-yl)-4-(hydroxyamino)-4-oxobutan-2-yl)-1H-1,2,3-triazol-4-yl)methyl)-3,4-difluorobenzamide] | 1.2 | –
O=C(C[C@@H](Cc1ccc2ccccc2c1)n1cc(COCc2ccccc2)nn1)NO [Compound 23, (R)-3-(4-benzyloxymethyl-[1,2,3]triazol-1-yl)-N-hydroxy-4-naphthalen-2-yl-butyramide] | 1.1 | –
O=C(C[C@@H](Cc1ccc2ccccc2c1)n1cc(CNS(=O)(=O)c2ccc(F)cc2)nn1)NO [Compound 6, (R)-3-{4-[(4-Fluoro-benzenesulfonylamino)-methyl]-[1,2,3]triazol-1-yl}-N-hydroxy-4-naphthalen-2-yl-butyramide] | 1.3 | –
O=C(CC(Cc1ccc2ccccc2c1)c1nc(CNC(=O)c2ccccc2)no1)NO (stereo not shown) [Compound 28, N-[5-(1-hydroxycarbamoylmethyl-2-naphthalen-2-yl-ethyl)-[1,2,4]oxadiazol-3-ylmethyl]-benzamide] | 2.0 | –
O=C(C[C@@H](Cc1ccc2c(c1)CCCC2)n1cc(CNC(=O)c2ccc(F)cc2)nn1)NO [Compound 165, (R)-4-fluoro-N-((1-(4-(hydroxyamino)-4-oxo-1-(5,6,7,8-tetrahydronaphthalen-2-yl)butan-2-yl)-1H-1,2,3-triazol-4-yl)methyl)benzamide] | 1.9 | –
O=C(C[C@@H](Cc1c[nH]c2ccccc12)n1cc(C2COCCN2C(=O)c2ccc(F)c(F)c2)nn1)NO (stereo partly drawn) [Compound 90, (3R)-3-[4-[4-(3,4-difluorobenzoyl)morpholin-3-yl]triazol-1-yl]-4-(1H-indol-3-yl)butanehydroxamic acid] | 1.4 | –
O=C(NCc1noc(C(Cc2ccc3ccccc3c2)C(=O)NO)n1)c1ccc(F)cc1 (stereo not shown) [Compound 44, 4-Fluoro-N-[5-(1-hydroxycarbamoyl-2-naphthalen-2-yl-ethyl)-[1,2,4]oxadiazol-3-ylmethyl]-benzamide] | 1.2 | –
O=C(C[C@@H](Cc1ccc2ccccc2c1)n1cc(CCNC(=O)c2ccc(F)c(F)c2)nn1)NO [Compound 57, 3,4-difluoro-N-[2-[1-[(1R)-3-(hydroxyamino)-1-(2-naphthylmethyl)-3-oxo-propyl]triazol-4-yl]ethyl]benzamide] | 1.7 | –
O=C(C[C@@H](Cc1ccc2cc[nH]c2c1)n1cc(CNC(=O)c2ccc(F)cc2)nn1)NO [Compound 176, (R)-4-fluoro-N-((1-(4-(hydroxyamino)-1-(1H-indol-6-yl)-4-oxobutan-2-yl)-1H-1,2,3-triazol-4-yl)methyl)benzamide] | 1.3 | –
